This note sets out measurements from PMC8617627, “Novel DYRK1A Inhibitor Rescues Learning and Memory Deficits in a Mouse Model of Down Syndrome” (Pharmaceuticals, 2021).

Each structure is given as a SMILES string. Like-named read-outs stand apart in the source and are kept apart here.

One series relates to Ts65Dn mice. As to the kind of experiment: Contextual fear conditioning. The format is in vivo. On the procedure: The capacity for contextual memory of 10- to 16-week old Ts65Dn mice was compared with age-matched euploid control mice using a fear conditioning protocol. Briefly, the mice were exposed for 3 min to the context test chamber serving as a conditioning stimulus, followed by an electric shock for 2 s representing the unconditioned stimulus. […] Freezing, defined as a species-specific defensive reaction characterized by lack of movement besides respiration and heartbeat, associated with crouching posture, was used as a measure of learning, and assessed for 180 s, every 9 s by two trained observers […] of the mouse genotypes and the pharmacological agent being used.
The capacity for contextual memory of 10- to 16-week-old Ts65Dn mice was compared with age-matched euploid control mice using the same fear conditioning protocol used in a previous work with the drug memantine. Briefly, the mice were exposed for 3 min to the context (Med Associates, St. Albans, VT, Modular Mouse Test Chamber) serving as a conditioning stimulus, followed by an electric shock (2 s, 0.7 mA, constant electric current) representing the unconditioned stimulus. […] Freezing, defined as a species-specific defensive reaction characterized by lack of movement besides respiration and heartbeat, associated with crouching posture, was used as a measure of learning, and assessed for 180 s, every 9 s by two trained observers […] of the mouse genotypes and the pharmacological agent being used. The mean number of observations indicating freezing behavior was expressed as percentage of freezing in relation to the total number of observations. All experiments were video-recorded, for automated video-analysis, confirmation of the trained-observer scores, and archival purposes.
In addition, the mice continued to consume these same food preparations during the two days necessary to perform the behavioral testing.

Another series concerns the target T1, TLK1 (Homo sapiens, UniProt Q9UKI8).
T1 sequence (Q9UKI8 1-766): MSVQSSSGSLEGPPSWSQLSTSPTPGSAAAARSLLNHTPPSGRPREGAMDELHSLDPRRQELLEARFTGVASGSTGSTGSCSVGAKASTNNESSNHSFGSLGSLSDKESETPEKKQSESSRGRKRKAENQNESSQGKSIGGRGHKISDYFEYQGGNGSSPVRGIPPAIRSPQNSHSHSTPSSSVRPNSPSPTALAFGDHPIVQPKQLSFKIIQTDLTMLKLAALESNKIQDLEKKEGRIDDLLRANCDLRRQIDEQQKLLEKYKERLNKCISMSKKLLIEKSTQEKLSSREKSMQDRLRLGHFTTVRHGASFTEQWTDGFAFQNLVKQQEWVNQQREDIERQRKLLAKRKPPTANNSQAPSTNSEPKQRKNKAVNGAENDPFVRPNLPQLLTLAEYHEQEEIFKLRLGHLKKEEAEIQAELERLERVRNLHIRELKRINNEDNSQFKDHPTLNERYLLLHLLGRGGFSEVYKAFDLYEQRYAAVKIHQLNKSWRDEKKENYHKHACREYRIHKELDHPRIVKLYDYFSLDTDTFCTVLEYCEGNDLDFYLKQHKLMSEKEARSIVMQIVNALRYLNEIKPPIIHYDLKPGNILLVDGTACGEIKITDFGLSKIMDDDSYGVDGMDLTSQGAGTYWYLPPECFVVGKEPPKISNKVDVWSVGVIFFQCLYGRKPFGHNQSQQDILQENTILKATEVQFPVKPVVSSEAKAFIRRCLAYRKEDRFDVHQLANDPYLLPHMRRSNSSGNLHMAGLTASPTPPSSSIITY
As to the kind of experiment: Kinase profile (33P ATP filter binding). Format: biochemical. The settings on record: read-out: Remaining protein kinase activity.

The next series has as its target T2, NUAK1 (Homo sapiens, UniProt O60285).
T2 sequence (O60285 1-661): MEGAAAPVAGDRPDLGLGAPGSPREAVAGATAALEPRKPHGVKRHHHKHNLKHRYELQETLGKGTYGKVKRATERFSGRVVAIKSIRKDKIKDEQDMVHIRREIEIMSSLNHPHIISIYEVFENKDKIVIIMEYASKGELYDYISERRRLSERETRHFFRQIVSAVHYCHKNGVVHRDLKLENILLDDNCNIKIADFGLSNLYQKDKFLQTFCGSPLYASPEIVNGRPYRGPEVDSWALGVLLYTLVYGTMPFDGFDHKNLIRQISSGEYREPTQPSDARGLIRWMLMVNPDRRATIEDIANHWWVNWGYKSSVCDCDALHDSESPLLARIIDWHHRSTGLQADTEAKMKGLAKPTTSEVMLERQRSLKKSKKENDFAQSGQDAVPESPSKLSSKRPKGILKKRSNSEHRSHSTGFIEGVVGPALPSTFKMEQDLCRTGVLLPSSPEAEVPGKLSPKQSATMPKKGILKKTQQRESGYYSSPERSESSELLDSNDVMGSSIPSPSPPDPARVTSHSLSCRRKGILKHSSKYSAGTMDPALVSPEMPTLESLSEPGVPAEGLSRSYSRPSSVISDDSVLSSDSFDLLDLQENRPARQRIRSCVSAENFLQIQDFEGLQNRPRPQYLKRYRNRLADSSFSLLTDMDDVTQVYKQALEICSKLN
Kind of series: Kinase profile (33P ATP filter binding). The format is biochemical.

The target in a further series is MEKK1 (Homo sapiens, UniProt Q13233). Kind of series: Kinase profile (33P ATP filter binding). The settings on record: read-out: Remaining protein kinase activity. The format is biochemical.
MEKK1, sequence (Q13233 whole entry): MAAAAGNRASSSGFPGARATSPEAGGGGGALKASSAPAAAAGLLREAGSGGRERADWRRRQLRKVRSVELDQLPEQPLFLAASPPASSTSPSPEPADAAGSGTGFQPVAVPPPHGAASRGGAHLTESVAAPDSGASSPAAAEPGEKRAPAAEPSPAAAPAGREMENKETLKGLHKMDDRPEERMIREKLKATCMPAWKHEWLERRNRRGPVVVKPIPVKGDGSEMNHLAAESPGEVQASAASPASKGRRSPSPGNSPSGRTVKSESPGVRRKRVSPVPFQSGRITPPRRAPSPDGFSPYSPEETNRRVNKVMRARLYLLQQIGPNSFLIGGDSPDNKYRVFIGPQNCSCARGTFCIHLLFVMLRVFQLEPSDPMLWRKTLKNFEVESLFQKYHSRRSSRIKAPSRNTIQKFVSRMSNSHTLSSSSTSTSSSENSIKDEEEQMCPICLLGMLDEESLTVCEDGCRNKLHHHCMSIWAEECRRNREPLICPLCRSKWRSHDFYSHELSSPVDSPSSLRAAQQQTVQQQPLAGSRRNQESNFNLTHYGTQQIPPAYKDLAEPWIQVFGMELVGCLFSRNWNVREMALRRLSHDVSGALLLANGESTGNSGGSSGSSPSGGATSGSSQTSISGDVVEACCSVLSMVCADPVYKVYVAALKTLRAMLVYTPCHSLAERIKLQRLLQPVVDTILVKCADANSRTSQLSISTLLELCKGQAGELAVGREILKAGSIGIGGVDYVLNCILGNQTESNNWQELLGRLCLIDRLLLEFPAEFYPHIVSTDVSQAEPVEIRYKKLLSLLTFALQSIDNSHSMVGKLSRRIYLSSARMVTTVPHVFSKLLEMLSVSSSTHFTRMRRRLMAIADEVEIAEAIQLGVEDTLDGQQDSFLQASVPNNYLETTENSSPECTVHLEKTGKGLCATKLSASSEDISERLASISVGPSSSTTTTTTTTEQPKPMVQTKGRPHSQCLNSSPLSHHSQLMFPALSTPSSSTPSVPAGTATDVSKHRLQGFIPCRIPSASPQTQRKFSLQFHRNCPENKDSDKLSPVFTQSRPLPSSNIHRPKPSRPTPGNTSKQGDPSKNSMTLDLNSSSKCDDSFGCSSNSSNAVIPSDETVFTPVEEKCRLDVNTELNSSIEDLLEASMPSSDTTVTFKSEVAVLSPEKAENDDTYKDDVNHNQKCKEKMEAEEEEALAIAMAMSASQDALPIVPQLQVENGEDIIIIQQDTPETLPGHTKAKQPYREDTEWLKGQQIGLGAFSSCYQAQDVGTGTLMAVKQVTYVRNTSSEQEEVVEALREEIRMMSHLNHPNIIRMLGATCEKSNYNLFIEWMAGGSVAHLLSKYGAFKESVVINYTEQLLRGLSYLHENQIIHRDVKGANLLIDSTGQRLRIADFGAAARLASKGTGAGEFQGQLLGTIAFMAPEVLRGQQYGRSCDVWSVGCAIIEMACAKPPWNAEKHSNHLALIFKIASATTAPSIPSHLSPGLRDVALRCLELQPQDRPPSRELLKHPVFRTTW
The next series concerns 139-protein kinase panel. Kind of series: Selectivity on protein kinase panel (GINI-index). The conditions noted are these: in words.

Procedure for 139-protein kinase panel: The determination of protein kinase inhibition was performed at the International Centre for Kinase Profiling at the University of Dundee, UK. The method used is a radioactive filter binding assay using ^33P ATP as described in the literature [79]. The ATP concentrations were at or below the calculated Km for ATP for each particular kinase.

On to `COc1ccc2sc(-c3cncc(NC(C)=O)c3)nc2c1` [PST-001, N-(5-(5-Methoxybenzo[d]thiazol-2-yl)pyridin-3-yl)acetamide], for which, in the series on Ts65Dn mice (Ts65Dn mice, PST-001 in the food), the “Learning and memory deficits (freezing in context test)” value is “completely eliminated the learning and memory deficits”. Further, in the series on Ts65Dn mice (Ts65Dn mice, chronic oral administration), the Tolerability result is given as “well tolerated”. For the same compound, the “Percentage of freezing behavior” value in the series on Ts65Dn mice (control euploid mice, PST-001 in the food) is given as “no detectable effects”. Further, at TLK1, the remaining activity at 1 µM is 129% and the remaining activity at 100 µM was determined as 134%. The “Remaining protein kinase activity” value at NUAK1 (1 μM) worked out at 130%. Also, on MEKK1, the remaining activity at 1 µM came out at 126% and the remaining activity at 100 µM stood at 109%.

Turning to `COc1ccc2sc(-c3cncc(N)c3)nc2c1` [compound 1, 5-(5-Methoxybenzo[d]thiazol-2-yl)pyridin-3-amine], the remaining activity at 1 µM at TLK1 (TLK1, 1 μM) amounted to 131%; on MEKK1 (MEKK1, 1 μM), 132%. Further, the remaining activity at 100 µM at TLK1 (TLK1, 100 μM) stood at 115%; at MEKK1 (MEKK1, 100 μM), 107%. Besides, the results for the “Remaining protein kinase activity” value on NUAK1 (1 μM) and on NUAK1 (100 μM) were 112% and 35%, respectively. Further, the “Selectivity in the protein kinase panel” value with 139-protein kinase panel was “high selectivity towards DYRK1A”.

What is called remaining activity is the signal under treatment as a percentage of the control signal.
